Measurements published in US7307166B1, “Oxpurine nucleosides and their congeners, and acyl, derivatives thereof, for improvement of hematopoiesis” (Wellstat Therapeutics Corporation, priority 1987, dated 2007).

Legend:
Format in all cases: in vivo, mouse
[1] = system: Balb/C female mice; test: Hematopoietic recovery after cyclophosphamide in mice (spleen weight, blood cell counts)
[2] = system: TNF-alpha; test: LPS-induced serum TNF-alpha (ELISA)
Description: (§1) Sixty-three female Balb/C mice were randomly assigned to one of three groups. The animals in one group received a single daily dose of N^2,3′,5′-tripalmitoyldeoxyguanosine (PdG) (25 mg/kg, i.p.), while a second group received a single daily dose of the PdG treatment vehicle (control). The third group was left untreated. On the fourth day 100 μg salmonella typhimurium LPS was administered to all three groups. Serum samples were taken just prior to LPS administration (t=0) and at two, four, six, eight, ten, twelve, sixteen, and twenty hours after LPS administration. The samples were then frozen until the time of assay. Serum levels of TNF-alpha, and IFN-gamma were measured by ELISA.
In the tables below, units for cytokine concentrations are picograms per ml. A value of 0 indicates cytokine levels below the detection limit of the assay (50 to 100 pg/ml).

[3] = system: male CDF8F1 mice; test: Doxorubicin-induced myelosuppression
Description: Doxorubicin (Adriamycin) is a widely-used anticancer agent effective against breast carcinoma, sarcomas, small-cell lung cancer, ovarian cancer, thyroid cancer, Hodgkin's Disease and non-Hodgkins lymphoma. Its clinical application is limited by its cardiac and hematologic toxicities. A study was conducted to assess the effect of N^2 3′,5′-tripalmitoyldeoxyguanosine (PdG) in reducing the hematologic toxicity of doxorubicin. Eighty male CDF8F1 mice were divided into three groups. One group received no treatment and served as basal control animals. Animals in the other two groups were each given a single dose of doxorubicin at a dose of 11 mg/kg by intraperitoneal injection. Beginning 24 hours later, animals in the two groups received three daily doses by intraperitoneal injection of either PdG or vehicle only. Blood samples were obtained by retro-orbital eye bleed just prior to administration of doxorubicin and then 4, 8, 11 and 14 days thereafter. Complete blood cell counts with differential were determined.

[4] = system: interleukin-1-alpha; test: LPS-induced elevation of serum interleukin-1-alpha; details: PdG 25 mg/kg i.p.
Description: as §1
PdG also attenuated LPS-induced elevation of serum interleukin-1-alpha and interleukin-6.

[5] = Day 4 after doxorubicin 11 mg/kg
[6] = Day 8 after doxorubicin 11 mg/kg
[7] = Day 14 after doxorubicin 11 mg/kg

CCCCCCCCCCCCCCCC(=O)OC[C@H]1O[C@@H](n2cnc3c(=O)[nH]c(N)nc32)[C@H](O)[C@@H]1O
spleen weight ([1]; Ex 38: day 7 after CP, guanosine 5, acyl derivatives 2.5 μmoles/mouse/day in 0.2% Tween 80 i.p. 6 days, Tween 80 0.2%): significantly larger spleens | total neutrophils ([1]; Ex 41: day 7 after CP, treatment on only days 1 and 2, vs saline or Tween 80): significant increase | platelet number ([1]; Ex 47: day 10 after CP, 2.5 μmoles/mouse/day): significantly greater

CCCCCCCCCCCCCCCC(=O)Nc1nc2c(ncn2[C@H]2C[C@H](OC(=O)CCCCCCCCCCCCCCC)[C@@H](COC(=O)CCCCCCCCCCCCCCC)O2)c(=O)[nH]1 [PdG, 3′,5′-O-N^2-tripalmitoyl-2′-deoxyguanosine]
serum TNF-alpha ([2]; 0 hr after LPS 100 μg, PdG 25 mg/kg i.p. daily before, 0 = below detection limit): 0 picograms per ml | serum TNF-alpha ([2]; 2 hr after LPS): 1509 ± 86 picograms per ml | serum TNF-alpha ([2]; 4 hr after LPS): 529 ± 141 picograms per ml | serum TNF-alpha ([2]; 6 hr after LPS): 486 ± 63 picograms per ml | Peak TNF-alpha levels vs control groups ([2]; PdG 25 mg/kg i.p.): four-fold lower | Lymphocytes [3, 5]: 8.07 ± 1.21 K/μL | Neutrophils [3, 5]: 4.35 ± 0.73 K/μL | WBC ([3]; Day 4 after doxorubicin 11 mg/kg i.p., PdG 3 daily i.p. doses from 24 h after): 13.2 ± 1.59 K/μL | Lymphocytes [3, 6]: 1.63 ± 0.13 K/μL | Neutrophils [3, 6]: 2.47 ± 0.28 K/μL | WBC [3, 6]: 4.57 ± 0.35 K/μL | WBC ([3]; Day 11 after doxorubicin 11 mg/kg): 3.95 ± 0.42 K/μL | Lymphocytes [3, 7]: 2.0 ± 0.15 K/μL | Neutrophils [3, 7]: 2.3 ± 0.26 K/μL | WBC [3, 7]: 5.0 ± 0.39 K/μL | LPS-induced elevation of serum interleukin-1-alpha [4]: attenuated
